Measurements: article PMC5218480 (PLoS ONE, 2017)

Test system: MV-4-11 cells
Assay: Gene expression microarray analysis (Affymetrix PrimeView) and GSEA
Type: cell-based, human
Set-up: RFU PODN (11730768_x_at) / Fold change /veh PODN (11730768_x_at) / RFU LINC00158 (11744669_a_at) / Fold change /veh LINC00158 (11744669_a_at) / RFU DUSP10 (11751237_a_at) / Fold change /veh DUSP10 (11751237_a_at) / RFU ID3 (11757404_x_at) / Fold change /veh ID3 (11757404_x_at) / RFU PLEKHG5 (11737974_s_at) / Fold change /veh PLEKHG5 (11737974_s_at) / RFU LRRC4B (11730491_at) / Fold change /veh LRRC4B (11730491_at) / RFU GIMAP4 (11747438_a_at) / Fold change /veh GIMAP4 (11747438_a_at) / RFU KRT8 (11758183_x_at) / Fold change /veh KRT8 (11758183_x_at) / RFU CNN1 (11734310_a_at) / Fold change /veh CNN1 (11734310_a_at) / RFU VPS37D (11726825_at) / Fold change /veh VPS37D (11726825_at) / RFU C10orf10 (11716522_x_at) / Fold change /veh C10orf10 (11716522_x_at) / RFU KIR2DL2 /// KIR2DL4 /// KIR2DL5A /// KIR2DL5B /// KIR2DS1 /// KIR2DS2 /// KIR2DS3 /// KIR2DS4 /// KIR3DL3 /// KIR3DL3 /// KIR3DS1 (11738374_at) / Fold change /veh KIR2DL2 /// KIR2DL4 /// KIR2DL5A /// KIR2DL5B /// KIR2DS1 /// KIR2DS2 /// KIR2DS3 /// KIR2DS4 /// KIR3DL3 /// KIR3DL3 /// KIR3DS1 (11738374_at) / RFU C1QL1 (11718748_at) / Fold change /veh C1QL1 (11718748_at) / RFU TMPRSS4 (11747572_a_at) / Fold change /veh TMPRSS4 (11747572_a_at) / RFU HAMP (11756126_x_at) / Fold change /veh HAMP (11756126_x_at) / RFU RNFT2 (11725882_a_at) / Fold change /veh RNFT2 (11725882_a_at) / RFU NR4A2 (11747474_a_at) / Fold change /veh NR4A2 (11747474_a_at) / RFU ABCC12 (11746883_a_at) / Fold change /veh ABCC12 (11746883_a_at) / RFU TMEM136 (11760407_x_at) / Fold change /veh TMEM136 (11760407_x_at) / RFU CLDN22 /// WWC2 (11732394_at) / Fold change /veh CLDN22 /// WWC2 (11732394_at) / RFU HLA-DPB1 (11760878_x_at) / Fold change /veh HLA-DPB1 (11760878_x_at) / RFU SPINT1 (11716480_a_at) / Fold change /veh SPINT1 (11716480_a_at) / RFU GAP43 (11754022_s_at) / Fold change /veh GAP43 (11754022_s_at) / RFU A4GNT (11735810_at) / Fold change /veh A4GNT (11735810_at) / RFU PRB3 (11715151_x_at) / Fold change /veh PRB3 (11715151_x_at) / RFU TUBB4B (11761932_at) / Fold change /veh TUBB4B (11761932_at) / RFU CAPN14 (11732068_a_at) / Fold change /veh CAPN14 (11732068_a_at) / RFU TMCC2 (11721928_a_at) / Fold change /veh TMCC2 (11721928_a_at) / RFU IRGQ (11745062_a_at) / Fold change /veh IRGQ (11745062_a_at) / RFU FAM174B (11720279_a_at) / Fold change /veh FAM174B (11720279_a_at) / RFU TMPRSS4 (11748680_a_at) / Fold change /veh TMPRSS4 (11748680_a_at) / RFU FAM212B (11763350_a_at) / Fold change /veh FAM212B (11763350_a_at) / RFU PLEKHG5 (11743358_a_at) / Fold change /veh PLEKHG5 (11743358_a_at) / RFU ZSCAN30 (11745921_a_at) / Fold change /veh ZSCAN30 (11745921_a_at) / RFU CMKLR1 (11741424_a_at) / Fold change /veh CMKLR1 (11741424_a_at) / RFU LOC101060620 /// MAPK8IP1 (11723275_at) / Fold change /veh LOC101060620 /// MAPK8IP1 (11723275_at) / RFU SPTSSB (11747773_x_at) / Fold change /veh SPTSSB (11747773_x_at) / RFU PRSS12 (11739890_at) / Fold change /veh PRSS12 (11739890_at) / RFU BIN1 (11741810_x_at) / Fold change /veh BIN1 (11741810_x_at) / RFU WNT11 (11732464_a_at) / Fold change /veh WNT11 (11732464_a_at) / RFU C10orf10 (11716521_a_at) / Fold change /veh C10orf10 (11716521_a_at) / RFU C5orf56 (11738089_at) / Fold change /veh C5orf56 (11738089_at) / RFU CYB561 (11721691_x_at) / Fold change /veh CYB561 (11721691_x_at) / RFU ANKRD19P (11752326_a_at) / Fold change /veh ANKRD19P (11752326_a_at) / RFU OR2T12 /// OR2T33 /// OR2T8 (11738714_s_at) / Fold change /veh OR2T12 /// OR2T33 /// OR2T8 (11738714_s_at) / RFU VCAN (11748164_a_at) / Fold change /veh VCAN (11748164_a_at) / RFU JSRP1 (11732532_at) / Fold change /veh JSRP1 (11732532_at) / RFU KRTAP10-11 (11738290_x_at) / Fold change /veh KRTAP10-11 (11738290_x_at) / RFU MYO3A (11730013_a_at) / Fold change /veh MYO3A (11730013_a_at) / RFU EBF3 (11725865_a_at) / Fold change /veh EBF3 (11725865_a_at) / RFU CAMK2N1 (11719241_x_at) / Fold change /veh CAMK2N1 (11719241_x_at) / RFU C5orf56 (11738088_a_at) / Fold change /veh C5orf56 (11738088_a_at) / RFU OLFML3 (11715873_a_at) / Fold change /veh OLFML3 (11715873_a_at) / RFU LOC100653217 /// NTM (11731650_a_at) / Fold change /veh LOC100653217 /// NTM (11731650_a_at) / RFU MAPK11 (11762145_a_at) / Fold change /veh MAPK11 (11762145_a_at) / RFU FIZ1 (11724087_x_at) / Fold change /veh FIZ1 (11724087_x_at) / RFU OASL (11726364_x_at) / Fold change /veh OASL (11726364_x_at) / RFU SOX15 (11748057_x_at) / Fold change /veh SOX15 (11748057_x_at) / RFU CD79A (11719716_a_at) / Fold change /veh CD79A (11719716_a_at) / RFU HIST1H1D (11736915_at) / Fold change /veh HIST1H1D (11736915_at) / RFU CASKIN2 (11723855_a_at) / Fold change /veh CASKIN2 (11723855_a_at) / RFU LOC730098 (11760151_x_at) / Fold change /veh LOC730098 (11760151_x_at) / RFU OR4N2 (11742367_at) / Fold change /veh OR4N2 (11742367_at) / RFU PRRT2 (11749266_a_at) / Fold change /veh PRRT2 (11749266_a_at) / RFU SNX32 (11753110_a_at) / Fold change /veh SNX32 (11753110_a_at) / RFU CDHR5 (11726645_a_at) / Fold change /veh CDHR5 (11726645_a_at) / RFU RCAN1 (11760418_a_at) / Fold change /veh RCAN1 (11760418_a_at) / RFU FAM167A (11723789_a_at) / Fold change /veh FAM167A (11723789_a_at) / RFU FAM26E (11764081_at) / Fold change /veh FAM26E (11764081_at) / RFU ISYNA1 (11749810_s_at) / Fold change /veh ISYNA1 (11749810_s_at) / RFU ACY1 (11761880_at) / Fold change /veh ACY1 (11761880_at) / RFU 11764098_at / Fold change /veh 11764098_at / RFU SAMD14 (11745864_x_at) / Fold change /veh SAMD14 (11745864_x_at) / RFU NPB (11741838_a_at) / Fold change /veh NPB (11741838_a_at) / RFU TMPRSS6 (11731388_a_at) / Fold change /veh TMPRSS6 (11731388_a_at) / RFU KRTAP10-2 (11738614_at) / Fold change /veh KRTAP10-2 (11738614_at) / RFU ARHGAP8 /// PRR5-ARHGAP8 (11727945_x_at) / Fold change /veh ARHGAP8 /// PRR5-ARHGAP8 (11727945_x_at) / RFU KRTAP5-7 /// NADSYN1 (11734609_at) / Fold change /veh KRTAP5-7 /// NADSYN1 (11734609_at) / RFU RASL12 (11751679_a_at) / Fold change /veh RASL12 (11751679_a_at) / RFU CDKN2B (11736163_a_at) / Fold change /veh CDKN2B (11736163_a_at) / RFU PRF1 (11729649_at) / Fold change /veh PRF1 (11729649_at) / RFU, ZNF638 /// ZNF638-IT1 / Fold change vs veh, ZNF638 /// ZNF638-IT1 / RFU, PANK3 / Fold change vs veh, PANK3 / RFU, SH3YL1 / Fold change vs veh, SH3YL1 / RFU, ZEB2 / Fold change vs veh, ZEB2 / RFU, NRIP1 / Fold change vs veh, NRIP1 / RFU, PTTG1IP / Fold change vs veh, PTTG1IP / RFU, CAPN2 / Fold change vs veh, CAPN2 / RFU, MED14 / Fold change vs veh, MED14 / RFU, SNORA58 / Fold change vs veh, SNORA58 / RFU, C1orf63 / Fold change vs veh, C1orf63 / RFU, LRRFIP1 / Fold change vs veh, LRRFIP1 / RFU, NDUFAF7 / Fold change vs veh, NDUFAF7 / RFU, SLC12A2 / Fold change vs veh, SLC12A2 / RFU, IBTK / Fold change vs veh, IBTK / RFU, ESF1 / Fold change vs veh, ESF1 / Fold change vs veh, TMEM50B / RFU, TAOK1 / Fold change vs veh, TAOK1 / RFU, ACBD3 / Fold change vs veh, ACBD3 / RFU, TMA16 / Fold change vs veh, TMA16 / RFU, RWDD3 / Fold change vs veh, RWDD3 / RFU, BCAT1 / Fold change vs veh, BCAT1 / RFU, EDEM3 / Fold change vs veh, EDEM3 / RFU, TMEM33 / Fold change vs veh, TMEM33 / RFU, WDR75 / Fold change vs veh, WDR75 / RFU, AHCTF1 / Fold change vs veh, AHCTF1 / RFU, TFRC / Fold change vs veh, TFRC / RFU, ZDHHC17 / Fold change vs veh, ZDHHC17 / RFU, NOM1 / Fold change vs veh, NOM1 / RFU, ARL8B / Fold change vs veh, ARL8B / RFU, ZBTB11 / Fold change vs veh, ZBTB11 / RFU, TAMM41 / Fold change vs veh, TAMM41 / RFU, KIAA1704 /// LOC100996395 / Fold change vs veh, KIAA1704 /// LOC100996395 / RFU, ING1 / Fold change vs veh, ING1 / RFU, TRMT61B / Fold change vs veh, TRMT61B / RFU, FUBP3 / Fold change vs veh, FUBP3 / RFU, TP53 / Fold change vs veh, TP53 / RFU, TNKS2 / Fold change vs veh, TNKS2 / RFU, ZFP14 / Fold change vs veh, ZFP14 / RFU, ACTR2 / Fold change vs veh, ACTR2 / RFU, PPP3R1 / Fold change vs veh, PPP3R1 / RFU, PIK3R1 / Fold change vs veh, PIK3R1 / RFU, HNRNPA1 / Fold change vs veh, HNRNPA1 / RFU, RNF170 / Fold change vs veh, RNF170 / RFU, ZNF28 / Fold change vs veh, ZNF28 / RFU, RNGTT / Fold change vs veh, RNGTT / RFU, OGT / Fold change vs veh, OGT / RFU, BRD1 / Fold change vs veh, BRD1 / RFU, MARS / Fold change vs veh, MARS / RFU, ZNF655 / Fold change vs veh, ZNF655 / RFU, FAHD1 / Fold change vs veh, FAHD1 / RFU, BDP1 / Fold change vs veh, BDP1 / RFU, LRRCC1 / Fold change vs veh, LRRCC1 / RFU, ARID1A / Fold change vs veh, ARID1A / RFU, ZNF146 / Fold change vs veh, ZNF146 / RFU, ZNF330 / Fold change vs veh, ZNF330 / RFU, GPN3 / Fold change vs veh, GPN3 / RFU, C9orf123 / Fold change vs veh, C9orf123 / RFU, N4BP2L2 / Fold change vs veh, N4BP2L2 / RFU, ARFIP1 / Fold change vs veh, ARFIP1 / RFU, FAM179B / Fold change vs veh, FAM179B / RFU, BCL10 / Fold change vs veh, BCL10 / RFU, UHRF1BP1L / Fold change vs veh, UHRF1BP1L / RFU, BET1 / Fold change vs veh, BET1 / RFU, CNOT2 / Fold change vs veh, CNOT2 / RFU, ZNF268 / Fold change vs veh, ZNF268 / Fold change vs veh, ZNF507 / RFU, DGCR2 / Fold change vs veh, DGCR2 / RFU, WDSUB1 / Fold change vs veh, WDSUB1 / Fold change vs veh, HSP90B1 /// MIR3652 / RFU, ADSS / Fold change vs veh, ADSS / RFU, GK / Fold change vs veh, GK / RFU, ZNF148 / Fold change vs veh, ZNF148 / RFU, TAF9 / Fold change vs veh, TAF9 / RFU, SLC1A5 / Fold change vs veh, SLC1A5 / RFU, SLMO2 / Fold change vs veh, SLMO2 / RFU, ABCC4 / Fold change vs veh, ABCC4 / RFU, LOC101060439 /// RAP1B / Fold change vs veh, LOC101060439 /// RAP1B / RFU, RFX7 / Fold change vs veh, RFX7 / RFU, GTPBP10 / Fold change vs veh, GTPBP10 / RFU, CNEP1R1 / Fold change vs veh, CNEP1R1 / RFU, BIVM-ERCC5 /// ERCC5 / Fold change vs veh, BIVM-ERCC5 /// ERCC5 / RFU, ILF3 / Fold change vs veh, ILF3 / RFU 11762660_at / Fold change /veh 11762660_at / RFU VCAN (11757783_s_at) / Fold change /veh VCAN (11757783_s_at) / RFU DDX43 (11728927_at) / Fold change /veh DDX43 (11728927_at) / RFU KRT8 (11758188_x_at) / Fold change /veh KRT8 (11758188_x_at) / RFU NKD1 (11759106_at) / Fold change /veh NKD1 (11759106_at) / RFU SRD5A1 (11742802_a_at) / Fold change /veh SRD5A1 (11742802_a_at) / RFU TPSAB1 /// TPSB2 (11721975_s_at) / Fold change /veh TPSAB1 /// TPSB2 (11721975_s_at) / RFU GSTM3 (11746129_a_at) / Fold change /veh GSTM3 (11746129_a_at) / RFU IL23R (11737362_x_at) / Fold change /veh IL23R (11737362_x_at) / RFU TMEM51 (11727254_a_at) / Fold change /veh TMEM51 (11727254_a_at) / RFU PIWIL2 (11732686_x_at) / Fold change /veh PIWIL2 (11732686_x_at) / RFU ORM1 (11744905_x_at) / Fold change /veh ORM1 (11744905_x_at) / RFU CCDC152 (11743942_at) / Fold change /veh CCDC152 (11743942_at) / RFU ECM1 (11717891_a_at) / Fold change /veh ECM1 (11717891_a_at) / RFU IL23R (11748794_a_at) / Fold change /veh IL23R (11748794_a_at) / RFU TNFAIP8L3 (11732012_x_at) / Fold change /veh TNFAIP8L3 (11732012_x_at) / RFU MBOAT4 (11741988_at) / Fold change /veh MBOAT4 (11741988_at) / RFU 11764193_at / Fold change /veh 11764193_at / RFU TMEM53 (11763286_at) / Fold change /veh TMEM53 (11763286_at) / RFU MAGEB2 (11727129_at) / Fold change /veh MAGEB2 (11727129_at) / RFU TMEM200A (11744735_a_at) / Fold change /veh TMEM200A (11744735_a_at) / RFU CCDC152 (11751479_a_at) / Fold change /veh CCDC152 (11751479_a_at) / RFU FAM211A (11726209_a_at) / Fold change /veh FAM211A (11726209_a_at) / RFU RGS16 (11746705_a_at) / Fold change /veh RGS16 (11746705_a_at) / RFU VCAN (11755009_s_at) / Fold change /veh VCAN (11755009_s_at) / RFU RHOB (11743442_s_at) / Fold change /veh RHOB (11743442_s_at) / RFU RGS16 (11720943_a_at) / Fold change /veh RGS16 (11720943_a_at) / RFU RGS16 (11720944_at) / Fold change /veh RGS16 (11720944_at) / RFU, VPS4B / Fold change vs veh, VPS4B / RFU, CREB1 / Fold change vs veh, CREB1 / RFU, DNAJC13 / Fold change vs veh, DNAJC13 / RFU, GNAQ / Fold change vs veh, GNAQ / RFU, CDK5R1 / Fold change vs veh, CDK5R1 / RFU, ZRANB3 / Fold change vs veh, ZRANB3 / RFU, CUL4A / Fold change vs veh, CUL4A / RFU, CCNY / Fold change vs veh, CCNY / RFU, UFL1 / Fold change vs veh, UFL1 / RFU, COG3 / Fold change vs veh, COG3 / RFU, DIAPH2 / Fold change vs veh, DIAPH2 / RFU, SKA2 / Fold change vs veh, SKA2 / RFU, AFF3 / Fold change vs veh, AFF3 / RFU, LMF1 / Fold change vs veh, LMF1 / RFU, IPO11 / Fold change vs veh, IPO11 / RFU, DFFB / Fold change vs veh, DFFB / RFU, FOXP1 / Fold change vs veh, FOXP1 / RFU, CARD8 / Fold change vs veh, CARD8 / RFU, STRN3 / Fold change vs veh, STRN3 / RFU, ADK / Fold change vs veh, ADK / RFU, RASSF2 / Fold change vs veh, RASSF2 / RFU, WIPF1 / Fold change vs veh, WIPF1 / RFU, LARP1B / Fold change vs veh, LARP1B / RFU, RASA1 / Fold change vs veh, RASA1 / RFU, RB1 / Fold change vs veh, RB1 / RFU, PPFIA1 / Fold change vs veh, PPFIA1 / RFU, MAT2A / Fold change vs veh, MAT2A / RFU, CCT5 / Fold change vs veh, CCT5 / RFU, WDR92 / Fold change vs veh, WDR92 / RFU, CUX1 / Fold change vs veh, CUX1 / RFU, TTC7A / Fold change vs veh, TTC7A / RFU, TMEM135 / Fold change vs veh, TMEM135 / RFU, DEPTOR / Fold change vs veh, DEPTOR / RFU, CPM / Fold change vs veh, CPM / RFU, DNAJB6 / Fold change vs veh, DNAJB6 / RFU, CACNA2D3 / Fold change vs veh, CACNA2D3 / RFU, DTX4 / Fold change vs veh, DTX4 / RFU, TFCP2 / Fold change vs veh, TFCP2 / RFU, GMCL1 /// GMCL1P1 / Fold change vs veh, GMCL1 /// GMCL1P1 / RFU, AEBP2 / Fold change vs veh, AEBP2 / RFU, SNHG1 /// SNORD22 /// SNORD25 /// SNORD26 /// SNORD27 /// SNORD28 /// SNORD29 /// SNORD31 / Fold change vs veh, SNHG1 /// SNORD22 /// SNORD25 /// SNORD26 /// SNORD27 /// SNORD28 /// SNORD29 /// SNORD31 / Fold change (Aza/veh), C12orf56 (ProbeSet 11735607_a_at) / Fold change (ACY-1035/veh), C12orf56 (ProbeSet 11735607_a_at) / Fold change (Aza/veh), FGFR1OP (ProbeSet 11751329_s_at) / Fold change (ACY-1035/veh), FGFR1OP (ProbeSet 11751329_s_at) / Fold change (Aza/veh), VPS36 (ProbeSet 11739960_a_at) / Fold change (ACY-1035/veh), VPS36 (ProbeSet 11739960_a_at) / RFU SYPL1 (11715823_x_at) / Fold change /veh SYPL1 (11715823_x_at) / RFU IGFBP7 (11715501_s_at) / Fold change /veh IGFBP7 (11715501_s_at) / RFU REEP3 (11722064_at) / Fold change /veh REEP3 (11722064_at) / RFU IGLL1 (11728026_x_at) / Fold change /veh IGLL1 (11728026_x_at): dose or concentration left out as unconfirmed
Conditions: MV-4-11 cells, 48 hours

Structure (SMILES): Nc1ncn([C@@H]2O[C@H](CO)[C@@H](O)[C@H]2O)c(=O)n1 [azacitidine]
- Fold change /veh PLEKHG5 (11743358_a_at): 1.07
